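A five-concentration, 48-hour dose response in 96-well plates underlies each endpoint, interpolated linearly between surrounding concentrations. The concentration for 50% growth inhibition is given as GI50. TGI: concentration producing complete growth inhibition.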
How the values were obtained:
Test in all cases: DTP human tumour cell line panel, 48 h
[1] = system: A498 renal
[2] = system: ACHN renal
[3] = system: BT-549 breast
[4] = system: CAKI-1 renal
[5] = system: CCRF-CEM leukemia
[6] = system: COLO 205 colon
[7] = system: DU-145 prostate
[8] = system: EKVX NSCLC
[9] = system: HCC-2998 colon
[10] = system: HCT-116 colon
[11] = system: HCT-15 colon
[12] = system: HOP-62 NSCLC
[13] = system: HOP-92 NSCLC
[14] = system: HS 578T breast
[15] = system: HT29 colon
[16] = system: IGROV1 ovarian
[17] = system: K-562 leukemia
[18] = system: KM12 colon
[19] = system: LOX IMVI melanoma
[20] = system: M14 melanoma
[21] = system: MALME-3M melanoma
[22] = system: MCF7 breast
[23] = system: MDA-MB-231 breast
[24] = system: MDA-MB-435
[25] = system: MOLT-4 leukemia
[26] = system: NCI-H226 lung
[27] = system: NCI-H23 lung
[28] = system: NCI-H460 lung
[29] = system: NCI-H522 lung
[30] = system: NCI/ADR-RES ovarian
[31] = system: OVCAR-3 ovarian
[32] = system: OVCAR-4 ovarian
[33] = system: OVCAR-5 ovarian
[34] = system: OVCAR-8 ovarian
[35] = system: PC-3 prostate
[36] = system: RPMI-8226 leukemia
[37] = system: RXF 393 renal
[38] = system: SF-268 CNS
[39] = system: SF-295 CNS
[40] = system: SF-539 CNS
[41] = system: SK-MEL-28 melanoma
[42] = system: SK-MEL-5 melanoma
[43] = system: SK-OV-3 ovarian
[44] = system: SN12C renal
[45] = system: SNB-19 CNS
[46] = system: SNB-75 CNS
[47] = system: SR leukemia
[48] = system: SW-620 colon
[49] = system: T-47D breast
[50] = system: UACC-257 melanoma
[51] = system: UACC-62 melanoma
[52] = system: UO-31 renal

For `O=C(CCCCCCC(=O)Nc1ccc(N(CCCl)CCCl)cc1)NO`, the GI50 [1] was 3.11 µM, the TGI [1] was 13.1 µM and the GI50 [2] was 1.09 µM. The TGI [2] was 4.86 µM, the GI50 [3] was 5.83 µM and the TGI [3] was 29.2 µM. For the same molecule, the GI50 [4] was 1.2 µM, the TGI [4] was 11.2 µM and the GI50 [5] was 0.405 µM. For the same molecule, the TGI [5] was greater than 100 µM, the GI50 [6] was 4.4 µM and the TGI [6] was 19.9 µM. The GI50 [7] was 2.72 µM, the TGI [7] was 19.3 µM and the GI50 [8] was 11.5 µM. The TGI [8] was 37.9 µM, the GI50 [9] was 9.26 µM and the TGI [9] was 22.6 µM. The GI50 [10] was 1.97 µM, the TGI [10] was 12.9 µM and the GI50 [11] was 18.9 µM. It also gave a TGI [11] greater than 100 µM, a GI50 [12] of 2.98 µM and a TGI [12] of 13.5 µM. It also gave a GI50 [13] of 1.19 µM, a TGI [13] of 5.47 µM and a GI50 [14] of 5.66 µM. For the same molecule, the TGI [14] was greater than 100 µM, the GI50 [15] was 1.56 µM and the TGI [15] was 12.7 µM. It also gave a GI50 [16] of 2.51 µM, a TGI [16] of 21.2 µM and a GI50 [17] of 1.75 µM. The TGI [17] was 12.3 µM, the GI50 [18] was 6.58 µM and the TGI [18] was 21.7 µM. It also gave a GI50 [19] of 1.34 µM, a TGI [19] of 3.78 µM and a GI50 [20] of 2.43 µM. For the same molecule, the TGI [20] was 10.7 µM, the GI50 [21] was 0.507 µM and the TGI [21] was 5.6 µM. The GI50 [22] was 1.48 µM, the TGI [22] was 24.3 µM and the GI50 [23] was 6.99 µM. For the same molecule, the TGI [23] was 52.4 µM, the GI50 [24] was 1.87 µM and the TGI [24] was 12 µM. It also gave a GI50 [25] of 0.421 µM, a TGI [25] of 4.26 µM and a GI50 [26] of 4.01 µM. For the same molecule, the TGI [26] was 21 µM, the GI50 [27] was 2.1 µM and the TGI [27] was 8.64 µM. It also gave a GI50 [28] of 0.598 µM, a TGI [28] of 12.9 µM and a GI50 [29] of 0.474 µM. For the same molecule, the TGI [29] was 2.03 µM, the GI50 [30] was 5.4 µM and the TGI [30] was greater than 100 µM. The GI50 [31] was 1.92 µM, the TGI [31] was 6.66 µM and the GI50 [32] was 3.37 µM. The TGI [32] was 32.4 µM, the GI50 [33] was 2.56 µM and the TGI [33] was 30.6 µM. For the same molecule, the GI50 [34] was 1.79 µM, the TGI [34] was 21 µM and the GI50 [35] was 3.7 µM. It also gave a TGI [35] greater than 100 µM, a GI50 [36] of 3.02 µM and a TGI [36] greater than 100 µM. It also gave a GI50 [37] of 1.64 µM, a TGI [37] of 4.74 µM and a GI50 [38] of 1.08 µM. The TGI [38] was 3.82 µM, the GI50 [39] was 1.91 µM and the TGI [39] was 10.2 µM. For the same molecule, the GI50 [40] was 2.38 µM, the TGI [40] was 14.7 µM and the GI50 [41] was 3.35 µM. For the same molecule, the TGI [41] was 16.3 µM, the GI50 [42] was 1.33 µM and the TGI [42] was 2.92 µM. It also gave a GI50 [43] of 3.76 µM, a TGI [43] of 15.9 µM and a GI50 [44] of 0.8 µM. For the same molecule, the TGI [44] was 18.6 µM, the GI50 [45] was 4.12 µM and the TGI [45] was 29 µM. It also gave a GI50 [46] of 1.35 µM, a TGI [46] of 10.1 µM and a GI50 [47] of 0.23 µM. It also gave a TGI [47] of 3.09 µM, a GI50 [48] of 1.71 µM and a TGI [48] of 22 µM. The GI50 [49] was 1.63 µM, the TGI [49] was 7.37 µM and the GI50 [50] was 2.27 µM. For the same molecule, the TGI [50] was 14.1 µM, the GI50 [51] was 1.09 µM and the TGI [51] was 5.09 µM. It also gave a GI50 [52] of 1.82 µM and a TGI [52] of 13 µM.

— PubChem BioAssay (NCI)
